Measurements taken from patent publication US11780832B2, “Lactivicin compounds, their preparation and use as antibacterial agents” (priority 2021, dated 2023).
Where two headings read alike, the source gives them in different places.

Columns and labels:
Format in all cases: cell-based
[1] = tested on: Klebsiella pneumoniae CMY-DHA; test: MIC against CMY-DHA producing strains, compound alone; conditions: row r32
Protocol: (§1) Gram-negative and Gram-positive bacterial strains used during the in vitro minimum inhibitory concentration (MIC) determination were obtained either from the American Type Culture Collection (ATCC) or from clinical specimens. All strains were characterized genotypically and the respective antibiotic resistance markers for each strain were identified.
(§2) Isolates were sub-cultured onto appropriate media and stocked in skim milk at −80° C. Following two subcultures from frozen stock, in vitro antimicrobial susceptibility testing was performed using the Clinical and Laboratory Standards Institute (CLSI) broth microdilution method. Briefly, fresh cultures were suspended in culture media to give a final stock inoculum size of 5×10^7 colony forming units per milliliter of broth (CFU/mL). Test compounds were prepared at a stock solution concentration equal to 128 μg/mL, then diluted to give a final an initial working concentration of 32 μg/mL. 100 μL of the stock solutions were added to the first wells in a 96-well plate and were then diluted using a 2-fold dilution method to give a range of 32-0.025 μg/mL. 100 μL of the bacterial suspensions were then added to the 96-well plates to give a final working inoculum size of 5×10^5 CFU/mL. The final compound concentration range was 16-0.0125 μg/mL. […] MICs for comparator agents were determined using custom-designed, in-house prepared 96-well broth microdilution panels.

Escherichia coli CMY-DHA [2] = test: as above
Protocol: as §1, §2

[3] = tested on: Proteus mirabilis CMY-DHA; test: as above; conditions: row r36
Protocol: as §1, §2

[4] = tested on: Enterobacter cloacae species complex Elevated AmpC; test: Synergistic activity: MIC in the presence of Avibactam
Protocol: as §2
(§3) The same method used to test the activity of the claimed compounds was used to determine their synergistic activity when combined with a β-lactamase inhibitor except that either a fixed concentration or fixed ratio of a β-lactamase inhibitor was added to the 96-well plates prior to adding the bacteria cultures. Synergistic activity was defined as the reduction of MIC of a given compound when tested using the β-lactamase inhibitor versus testing the compound in the absence of a β-lactamase inhibitor.

[5] = tested on: Escherichia coli Elevated AmpC; test: as above
Protocol: as §2, §3

[6] = tested on: Klebsiella pneumoniae CMY-DHA; test: as above; conditions: row r32, in the presence of Avibactam @ 4 μg/mL
Protocol: as §2, §3

[7] = tested on: Citrobacter freundii species complex Elevated AmpC; test: as above; conditions: row r16, in the presence of Avibactam @ 4 μg/mL
Protocol: as §2, §3

Escherichia coli CMY-DHA [8] = test: as above
Protocol: as §2, §3

[9] = tested on: Proteus mirabilis CMY-DHA; test: as above; conditions: row r36, in the presence of Avibactam @ 4 μg/mL
Protocol: as §2, §3

[10] = tested on: Klebsiella pneumoniae KPC-2; test: MIC, CLSI broth microdilution; conditions: KPC2
Method in brief: (§4)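 MIC values come from CLSI broth microdilution against clinical and ATCC isolates whose resistance genes had been characterized. Compound dilutions were two-fold, with final concentrations between 16 and 0.0125 μg/mL.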

[11] = tested on: Pseudomonas aeruginosa AmpC overexpressed; test: MIC, CLSI broth microdilution
Method in brief: (§5)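 Genotyped isolates from ATCC or clinical sources were subcultured twice from −80 °C skim-milk stocks, then tested by CLSI broth microdilution. Compounds were serially diluted 2-fold to a final 16-0.0125 μg/mL, with a final inoculum of 5×10^5 CFU/mL.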

[12] = tested on: Serratia marcescens SME-2; test: MIC, CLSI broth microdilution; conditions: SME2
Method in brief: as §4

[13] = tested on: Pseudomonas aeruginosa OprD negative; test: MIC, CLSI broth microdilution
Method in brief: as §5

[14] = tested on: Serratia marcescens AmpC overexpressed; test: MIC, CLSI broth microdilution
Method in brief: as §5

[15] = tested on: Enterobacter cloacae species complex NDM-1; test: MIC, CLSI broth microdilution
Method in brief: as §4

Escherichia coli SHV-12 = test: MIC, CLSI broth microdilution; conditions: SHV12
Method in brief: as §4

[16] = tested on: Pseudomonas aeruginosa ATCC 27853; test: MIC, CLSI broth microdilution; conditions: ATCC27853
Method in brief: as §4

[17] = tested on: Klebsiella pneumoniae SHV-12; test: MIC, CLSI broth microdilution
Method in brief: as §4

[18] = tested on: Escherichia coli ATCC 25922; test: MIC, CLSI broth microdilution; conditions: ATCC25922
Method in brief: as §4

[19] = tested on: Klebsiella pneumoniae OXA-48, SHV-1; test: MIC, CLSI broth microdilution
Method in brief: as §5

[20] = tested on: Klebsiella pneumoniae OXA-163, OXA-1_OXA-30, SHV-1, TEM-1; test: MIC, CLSI broth microdilution
Method in brief: as §5

[21] = tested on: Klebsiella aerogenes VIM-1, SHV-12; test: MIC, CLSI broth microdilution
Method in brief: as §4

[22] = tested on: Acinetobacter baumannii ATCC 19606; test: MIC, CLSI broth microdilution; conditions: ATCC19606
Method in brief: as §4

[23] = tested on: Escherichia coli CTX-M-15; test: MIC, CLSI broth microdilution; conditions: CTXM15
Method in brief: as §4

Escherichia coli CMY-2 = test: MIC, CLSI broth microdilution; conditions: CMY2
Method in brief: as §4

[24] = in the presence of Avibactam @ 4 μg/mL
[25] = strain of row r7, in the presence of Avibactam @ 4 μg/mL
[26] = strain of row r20, in the presence of Avibactam @ 4 μg/mL
[27] = strain of row r10, in the presence of Avibactam @ 4 μg/mL
[28] = strain of row r11, in the presence of Avibactam @ 4 μg/mL
[29] = strain of row r12, in the presence of Avibactam @ 4 μg/mL
[30] = strain of row r13, in the presence of Avibactam @ 4 μg/mL
[31] = strain of row r14, in the presence of Avibactam @ 4 μg/mL
[32] = strain of row r15, in the presence of Avibactam @ 4 μg/mL
[33] = strain of row r26, in the presence of Avibactam @ 4 μg/mL
[34] = strain of row r27, in the presence of Avibactam @ 4 μg/mL
[35] = strain of row r28, in the presence of Avibactam @ 4 μg/mL
[36] = strain of row r29, in the presence of Avibactam @ 4 μg/mL
[37] = strain of row r30, in the presence of Avibactam @ 4 μg/mL
[38] = strain of row r31, in the presence of Avibactam @ 4 μg/mL
[39] = strain of row r34, in the presence of Avibactam @ 4 μg/mL
[40] = strain of row r35, in the presence of Avibactam @ 4 μg/mL

Measured: MIC

Nc1nc(/C(=N/OC2(C(=O)O)CC2)C(=O)N[C@H]2CON(C3(C(=O)O)C[C@H](N4C(=O)c5cc(O)c(O)cc5C4=O)C(=O)O3)C2=O)cs1 (stereo partly drawn) [Cmpd 1, (4S)-2-[(4S)-4-{[(2Z)-2-(2-amino-1,3-thiazol-4-yl)-2-{[(1-carboxycyclopropyl)oxy]imino}acetyl]amino}-3-oxo-1,2-oxazolidin-2-yl]-4-(5,6-dihydroxy-1,3-dioxo-1,3-dihydro-2H-isoindol-2-yl)-5-oxooxolane-2-carboxylic acid]
0.015 µg/mL: [5]; [29]
0.03 µg/mL: [7] | Escherichia coli CMY-DHA [8]; [33] | [9] | [22]
1 µg/mL: [1] | Escherichia coli CMY-DHA [2]; strain of row r26 | [23] | Escherichia coli CMY-2
0.0149 µg/mL: [17]; SHV12 | [19]
<=0.008 μg/mL: [4]; [26] | [5]; [27] | [5]; [28] | [5]; [30] | [5]; [31] | Escherichia coli CMY-DHA [8]; [34] | Escherichia coli CMY-DHA [8]; [35] | Escherichia coli CMY-DHA [8]; [37] | Escherichia coli CMY-DHA [8]; [39] | Escherichia coli CMY-DHA [8]; [40]
0.5 µg/mL: Escherichia coli CMY-DHA [2]; strain of row r29 | Escherichia coli CMY-DHA [2]; strain of row r30 | [6] | [11] | Escherichia coli SHV-12 | [21]
0.06 µg/mL: Escherichia coli CMY-DHA [2]; strain of row r27 | [4]; [24] | [5]; [32] | Escherichia coli CMY-DHA [8]; [36] | Escherichia coli CMY-DHA [8]; [38] | [12] | [18] | [20]
2 µg/mL: Escherichia coli CMY-DHA [2]; strain of row r31 | [3]
0.25 µg/mL: Escherichia coli CMY-DHA [2]; strain of row r28 | Escherichia coli CMY-DHA [2]; strain of row r34 | Escherichia coli CMY-DHA [2]; strain of row r35
0.12 µg/mL: [4]; [25] | [10] | [13] | [14] | [15] | [16]

Nc1nc(/C(=N/OC2(C(=O)O)CCC(F)(F)CC2)C(=O)N[C@H]2CON(C3(C(=O)O)C[C@H](N4C(=O)c5cc(O)c(O)cc5C4=O)C(=O)O3)C2=O)cs1 (stereo partly drawn) [Cmpd 10, (4S)-2-[(4S)-4-{[(2Z)-2-(2-amino-1,3-thiazol-4-yl)-2-{[(1-carboxy-4,4-difluorocyclohexyl)oxy]imino}acetyl]amino}-3-oxo-1,2-oxazolidin-2-yl]-4-(5,6-dihydroxy-1,3-dioxo-1,3-dihydro-2H-isoindol-2-yl)-5-oxooxolane-2-carboxylic acid]
≤ 0.015 µg/mL: [17]; SHV12, SHV-12, read-out: MIC | [19]
0.03 µg/mL: Escherichia coli CMY-DHA [2]; strain of row r27 | [5]; [28] | [5]; [29] | [7] | Escherichia coli CMY-DHA [8]; [35] | [10]
<=0.008 μg/mL: [4]; [26] | [5]; [27] | [5]; [30] | [5]; [31] | Escherichia coli CMY-DHA [8]; [34] | Escherichia coli CMY-DHA [8]; [37]
0.25 µg/mL: Escherichia coli CMY-DHA [2]; strain of row r28 | Escherichia coli CMY-DHA [2]; strain of row r30 | [6] | [13]
1 µg/mL: Escherichia coli CMY-DHA [2]; strain of row r31 | [23] | Escherichia coli CMY-2
0.06 µg/mL: Escherichia coli CMY-DHA [2]; strain of row r34 | [4]; [24] | [5]; [32] | Escherichia coli CMY-DHA [8]; [33] | Escherichia coli CMY-DHA [8]; [36] | Escherichia coli CMY-DHA [8]; [38] | [12] | [20]
0.015 µg/mL: Escherichia coli CMY-DHA [8]; [39] | Escherichia coli CMY-DHA [8]; [40]
0.5 µg/mL: [1] | Escherichia coli CMY-DHA [2]; strain of row r26 | Escherichia coli CMY-DHA [2]; strain of row r29 | [9]
0.12 µg/mL: Escherichia coli CMY-DHA [2]; strain of row r35 | [3] | [4]; [25] | [14] | [16] | [18] | [21] | [22]
2 µg/mL: [11] | [15] | Escherichia coli SHV-12
